Measurements reported in BindingDB's records for patent US10308662 (Signal Rx Pharmaceuticals, 2019).
pIC50: −log10 of the molar value.

Molecular target: T1, Bromodomain-containing protein 4 [349-460] (Homo sapiens, UniProt O60885)
T1 construct: 349-460
Test: in vitro […] inhibition assay
From the text: Inhibitory activity can be determined routinely using known methods and also from commercial vendors offering this service for kinases and bromodomain proteins. […] The activity of a compound of the invention as an inhibitor of a bromodomain-containing protein, such as a BET protein, such as BRD2, BRD3, BRD4, and/or BRDT, or an isoform or mutant thereof, may be determined in vitro, in vivo, or in a cell line. In vitro assays include assays that determine inhibition of bromodomain-containing proteins. Alternatively, inhibitor binding may be determined by running a competition experiment where a provided compound is incubated with a bromodomain-containing protein, such as a BET protein bound to known ligands, labeled or unlabeled. For example, bromodomain inhibition can be determined in vitro using Alpha Screen Technology (http://www.reactionbiology.com/webapps/site/NewsPDFs/Bromodomain%20Assay%20Platform%20for%20Drug%20Screening%20and%20Discovery.pdf).

SMILES: CCOC(=O)c1ccc(-c2csc3c(=O)cc(N4CCSCC4)oc23)cc1 [US10308662, Compound 125]
- pIC50: 5.73
